Measurements as given in patent US20230381157A1, “RIFABUTIN FOR THE TREATMENT OF ACINETOBACTER BAUMANNII” (University of Southern California, priority 2018, published 2023).
Where two headings read alike, the source gives them in different places.

Legend:
[1] = system: HEK293T; test: Specificity: mammalian cell cytotoxicity / inhibition of bacteria growth (CC50/IC50)
[2] = system: A. baumannii HUMC1; test: IC50 dose response, inhibition of bacterial growth (BacTiter-Glo viability); type: cell-based, Acinetobacter baumannii; settings: 11-point dose response, read-out: IC50
[3] = system: A. baumannii ATCC 17978; test: as above; type: cell-based, Acinetobacter baumannii; settings: 11-point dose response, read-out: IC50
[4] = system: A. baumannii HUMC1; test: MIC, broth microdilution in MHII, RPMI or modified media; type: cell-based, Acinetobacter baumannii; settings: Acinetobacter baumannii, HUMC1, HUMC1; inhibitor alone; read-out: MIC of efflux pump inhibitor alone
[5] = IC50 vs A. baumannii ATCC 17978, RPMI + 50% serum
[6] = IC50 vs A. baumannii ATCC 17978, RPMI alone
[7] = IC50 vs A. baumannii HUMC1, RPMI + 50% serum
[8] = IC50 vs A. baumannii HUMC1, RPMI alone
[9] = Acinetobacter baumannii, HUMC1, 24 h, HUMC1, RPMI + 50% Serum
[10] = Acinetobacter baumannii, HUMC1, HUMC1, RPMI + 50% Serum
[11] = Acinetobacter baumannii, HUMC1, HUMC1, RPMI
[12] = Acinetobacter baumannii, ATCC17978, 24 h, ATCC 17978, RPMI + 50% Serum
[13] = Acinetobacter baumannii, ATCC17978, ATCC 17978, RPMI + 50% Serum
[14] = Acinetobacter baumannii, ATCC17978, ATCC 17978, RPMI

| SMILES | Specificity HEK293T (CC50/IC50) [1, 5] | Specificity HEK293T (CC50/IC50) [1, 6] | Specificity HEK293T (CC50/IC50) [1, 7] | Specificity HEK293T (CC50/IC50) [1, 8] | IC50 ([2]; HUMC1, RPMI + 50% Serum) [µM] | IC50 ([2]; HUMC1, RPMI) [µM] | IC50 ([3]; ATCC 17978, RPMI + 50% Serum) [µM] | IC50 ([3]; ATCC 17978, RPMI) [µM] | IC50 [2, 9] [µM] | IC50 [2, 10] [µM] | IC50 [2, 11] [µM] | IC50 [3, 12] [µM] | IC50 [3, 13] [µM] | IC50 [3, 14] [µM] | MIC [4] [µg/mL] |
| --- | --- | --- | --- | --- | --- | --- | --- | --- | --- | --- | --- | --- | --- | --- | --- |
| CO[C@H]1/C=C/O[C@@]2(C)Oc3c(C)c([O-])c4c(O)c(cc(O)c4c3C2=O)NC(=O)/C(C)=C\C=C\[C@H](C)[C@H](O)[C@@H](C)[C@@H](O)[C@@H](C)[C@H](OC(C)=O)[C@@H]1C.[Na+] [rifamycin SV] | 1.000 | 1.108 | 1.000 | 1.348 | 50 | 37.1 | 50 | 45.1 |  |  |  |  |  |  |  |
| CO[C@H]1/C=C/O[C@@]2(C)Oc3c(C)c(O)c4c(O)c(cc(O)c4c3C2=O)NC(=O)/C(C)=C\C=C\[C@H](C)[C@H](O)[C@@H](C)[C@@H](O)[C@@H](C)[C@H](OC(C)=O)[C@@H]1C [rifamycin] | 0.412 | 0.478 | 0.383 | 0.654 |  |  |  |  | 35.4 | 35.4 | 20.8 | 33 | 33 | 28.4 |  |
| CO[C@H]1/C=C/O[C@@]2(C)Oc3c(C)c(O)c4c(O)c(c(/C=N/N5CCN(C6CCCC6)CC5)c(O)c4c3C2=O)NC(=O)/C(C)=C\C=C\[C@H](C)[C@H](O)[C@@H](C)[C@@H](O)[C@@H](C)[C@H](OC(C)=O)[C@@H]1C [rifapentine] | 1.222 | 4.517 | 3.148 | 3.413 |  |  |  |  | 10.9 | 10.9 | 10 | 28.1 | 28.1 | 7.59 |  |
| CO[C@H]1/C=C/O[C@@]2(C)Oc3c(C)c(O)c4c(O)c(c5c(nc6cc(C)ccn65)c4c3C2=O)NC(=O)/C(C)=C\C=C\[C@H](C)[C@H](O)[C@@H](C)[C@@H](O)[C@@H](C)[C@H](OC(C)=O)[C@@H]1C [rifaximin] | 20.421 | 28.143 | 31.517 | 32.776 |  |  |  |  | 1.59 | 1.59 | 1.53 | 2.45 | 2.45 | 1.78 |  |
| CSc1ccc2c(c1)N(CCC1CCCCN1C)c1ccccc1S2 (stereo not drawn) [thioridazine] |  |  |  |  |  |  |  |  |  |  |  |  |  |  | 64 |
